Test results taken from article PMC8116058, “De novo macrocyclic peptides dissect energy coupling of a heterodimeric ABC transporter by multimode allosteric inhibition” (eLife, 2021).
Positions of bridges follow the written chain, without caps; N, C: chain ends. Non-standard residues stand in square brackets, D forms with d. Residues, ends and D or L forms follow the SMILES beside them. *: point of attachment. 5FAM = O=C1OC2(c3ccc(O)cc3Oc3cc(O)ccc32)c2ccc(C(=O)*)cc21; βAla = NCCC(=O)O

Tests used:
[1] = Fluorescence anisotropy with empty liposomes (specificity control); type: binding; conditions: CP^F 50 nM
Description: In order to analyze the binding affinity and specificity of CPs to TmrAB, we established a fluorescence polarization assay. Fluorescein-labeled CP^Fs were incubated with increasing concentrations of TmrAB reconstituted in liposomes at a protein-to-lipid ratio of 1:20 (w/w). […] To address whether the CPs recognize a linear or non-linear epitope, we examined the binding of CP^Fs after disrupting the quaternary and tertiary structure of TmrAB complexes by adding anionic detergent SDS.
Figure 2. […] (A, B) Equilibrium binding analysis. Fluorescence anisotropy of CP^Fs (50 nM) was determined at λex/em = 485/520 nm with increasing concentrations of TmrAB which was reconstituted in liposomes. TmrAB concentrations were calculated based on the random (50/50%) orientation in proteoliposomes ([Stefan et al., 2020]). As a control, equal amounts of empty liposomes were added to CP^Fs (dashed lines, open symbols). The difference in fluorescence polarization was normalized to free (0%) and 100% bound CP^F. Mean values ± SD (n = 3) are shown, and data were analyzed by a one-site binding model. […] Streptavidin beads loaded with CP14^B (1 µM) were mixed with purified TmrAB (60 nM) for 1 hr at 4°C. Beads were washed and bound TmrAB was eluted by adding SDS loading buffer for 10 min at 95°C. Amounts of TmrA in input (I), flow-through (FT), wash fraction (W), and eluate (E) were analyzed by SDS-PAGE and immunoblotting (α-His). Beads without CP^B served as negative control (right panel). (D) One-step purification of TmrAB via immobilized CP14^B matrices. Streptavidin-agarose beads were loaded with CP14^B (1 µM) and mixed with DDM-solubilized membranes of E. coli containing TmrAB as described in (C). Bound TmrAB was eluted in SDS loading buffer and analyzed by SDS-PAGE (silver stain). (E) Native mass spectrometry. TmrAB (4 µM) was buffer exchanged to ESI buffer and incubated with a 2-fold molar excess of CP14^F for 10 min on ice. Protein complexes were investigated by ESI-TOF-mass spectrometry. […] Figure 2—source data 1. Source data for Figure 2. Figure 2—figure supplement 1. […] (A) CP^Bs-mediated isolation of solubilized TmrAB. Streptavidin matrices were loaded with CP^Bs (1 µM) and incubated with purified TmrAB (60 nM) for 1 hr at 4°C. Beads without CP^Bs served as control (see Figure 2C). Bound TmrAB complexes were eluted by the addition of SDS loading buffer for 10 min at 95°C. TmrAB in input (I), flow-through (FT), washing fraction (W), and eluate (E) was analyzed by SDS-PAGE and immunoblotting (α-His). […] Bound TmrAB complexes were eluted in SDS loading buffer and analyzed by SDS-PAGE (silver stain). […] CP^F-TmrAB complexes were analyzed by gel filtration. […] Fluorescence anisotropy was determined at λex/em = 485/520 nm. […]

[2] = tested on: TmrAB; assay: Competition of CP^F binding by substrate peptides (fluorescence anisotropy); set-up: species or system Thermus thermophilus
Text: To elucidate the mechanistic basis for the inhibition of ATP hydrolysis and substrate transport, we investigated the effects of CPs on substrate binding. In the first approach, fluorescent CP^Fs were used as reporters in fluorescence polarization. […] In addition, we examined the impact of CP^Bs on ATP binding to TmrAB by scintillation proximity assays (SPA) (Figure 4C). […] Taken together, CPs are high-affinity allosteric inhibitors of TmrAB that leave ATP binding and substrate interaction largely unaffected, while impairing ATP hydrolysis and substrate translocation across the membrane.
Figure 4. […] (A) CP^Fs binding TmrAB is not affected by substrate peptide binding. […] For competition, C4^ATTO655 peptide (2 µM) or R9LQK peptide (200 µM) were added. (B) Binding of C4F peptide is not affected by CP^Bs. C4F peptides (50 nM) were mixed with TmrAB (4 µM), and fluorescence anisotropy was monitored as described in (A). For competition, C4^ATTO655 (10 µM) or CP^Bs (6 µM) were added. […] TmrAB (0.2 µM) were immobilized on SPA beads and incubated with ATP (3 μM, traced with ^3H-ATP) in the presence and absence of CP^Bs (1 µM each) for 30 min on ice. ATP binding was monitored by SPA. Background values were determined after releasing TmrAB complexes from the beads by adding imidazole (200 mM). The background signal in the absence of CP^Bs was set to 0 cpm. […] As this is an equilibrium experiment, this can be rationalized by the fact that CP13 stabilizes the ATP-bound OF conformer. Figure 4—source data 1. Source data for Figure 4.
To determine equilibrium binding constants, CP^Fs (50 nM) were incubated with increasing concentrations of TmrAB-containing or empty liposomes. To probe the conformational selectivity, CP^Fs (50 nM) were mixed with detergent-solubilized IF TmrAB or OF TmrA^EQB. Before, OF TmrA^EQB was nucleotide-trapped by incubation with ATP (1 mM) and MgCl2 (3 mM) in the absence of CP^Fs for 5 min at 45°C. […] For peptide competition studies, RRYC^fluoresceinKSTEL (C4F, 50 nM) were incubated with detergent-solubilized TmrAB (4 µM), CP^Bs (6 µM), or C4^ATTO655 (10 µM). […] Fluorescence anisotropy was analyzed at λex/em of 485/520 nm using a microplate reader (CLARIOstar, BMG LABTECH). Fluorescence anisotropy was calculated using:(1) r=I||−I⊥/I||+2⋅I⊥ with I||: parallel intensity and I⊥: perpendicular intensity. Binding of CP^Fs were fitted by a one-site binding model (Langmuir 1:1) using:(2) Y=Bmax∙[L]/KD+[L] with Y: binding, Bmax: maximal binding, KD: equilibrium dissociation constant, and [L]: ligand concentration. Data represent mean ± SD from three experiments.

[3] = CP^F 50 nM + TmrAB + competitor C4^ATTO655 peptide 2 µM
[4] = CP^F 50 nM + TmrAB + competitor R9LQK peptide 200 µM
[5] = listed as -: CP^F 50 nM before addition of TmrAB
[6] = listed as TmrAB: CP^F 50 nM + TmrAB 0.5-0.7 µM, no competitor

| SMILES | Bound CP^F ([1]; amount equal to 0.5000 µM) [%] | Bound CP^F, fluorescence anisotropy [2, 3] | Bound CP^F, fluorescence anisotropy [2, 4] | Bound CP^F, fluorescence anisotropy [2, 5] | Bound CP^F, fluorescence anisotropy [2, 6] | Bound CP^F ([1]; amount equal to 0.2500 µM) [%] |
| --- | --- | --- | --- | --- | --- | --- |
| CC(C)C[C@@H]1NC(=O)[C@H](Cc2ccccc2)NC(=O)CNC(=O)[C@H](CO)NC(=O)[C@H](Cc2ccccc2)NC(=O)[C@H](CC(=O)O)NC(=O)[C@@H]2CCCN2C(=O)[C@H]([C@@H](C)O)NC(=O)[C@@H](Cc2ccc(O)cc2)NC(=O)CSC[C@@H](C(=O)NCC(=O)N[C@@H](CO)C(=O)NCCC(=O)NCCC(=O)N[C@@H](CCCNC(=N)N)C(=O)N[C@@H](CCCCNC(=O)c2ccc3c(c2)C(=O)OC32c3ccc(O)cc3Oc3cc(O)ccc32)C(N)=O)NC(=O)[C@H](C)NC(=O)[C@H](CC(N)=O)NC(=O)[C@H](CCCNC(=N)N)NC(=O)[C@H](CC(C)C)NC(=O)[C@H](Cc2ccccc2)NC(=O)[C@H](C)NC1=O [CP12] ({CH2CO}-[dY]TPDFSGFLAFLRNACGS[βAla][βAla]RK(5FAM)-NH2; thioether N-16) | -0.19 | 0.160 | 0.155 | 0.025 | 0.168 | – |
| CC[C@H](C)[C@@H]1NC(=O)[C@H]([C@@H](C)O)NC(=O)[C@H](CC(C)C)NC(=O)[C@H](Cc2c[nH]c3ccccc23)NC(=O)[C@H](Cc2ccccc2)NC(=O)[C@H](CC(N)=O)NC(=O)[C@H](CCC(=O)O)NC(=O)[C@H](CC(C)C)NC(=O)[C@H](CS)NC(=O)[C@H](Cc2c[nH]cn2)NC(=O)[C@H](CO)NC(=O)[C@@H](Cc2ccc(O)cc2)NC(=O)CSC[C@@H](C(=O)NCC(=O)N[C@@H](CO)C(=O)NCCC(=O)NCCC(=O)N[C@@H](CCCNC(=N)N)C(=O)N[C@@H](CCCCNC(=O)c2ccc3c(c2)C(=O)OC32c3ccc(O)cc3Oc3cc(O)ccc32)C(N)=O)NC(=O)[C@H](CC(C)C)NC1=O [CP6] ({CH2CO}-[dY]SHCLENFWLTILCGS[βAla][βAla]RK(5FAM)-NH2; thioether N-14) | -6.19 | 0.109 | 0.101 | 0.022 | 0.111 | – |
| CC[C@H](C)[C@@H]1NC(=O)[C@H](Cc2c[nH]c3ccccc23)NC(=O)[C@H](CC(N)=O)NC(=O)[C@H](C)NC(=O)[C@H](CO)NC(=O)[C@@H]2CCCN2C(=O)[C@H](CC(=O)O)NC(=O)[C@@H](Cc2ccc(O)cc2)NC(=O)CSC[C@@H](C(=O)NCC(=O)N[C@@H](CO)C(=O)NCCC(=O)NCCC(=O)N[C@@H](CCCNC(=N)N)C(=O)N[C@@H](CCCCNC(=O)c2ccc3c(c2)C(=O)OC32c3ccc(O)cc3Oc3cc(O)ccc32)C(N)=O)NC(=O)[C@H]([C@@H](C)O)NC(=O)[C@H](CC(C)C)NC(=O)[C@H](CC(C)C)NC(=O)[C@H](C(C)C)NC(=O)[C@H](CC(C)C)NC1=O [CP13] ({CH2CO}-[dY]DPSANWILVLLTCGS[βAla][βAla]RK(5FAM)-NH2; thioether N-14; C-terminus assumed) | – | 0.122 | 0.123 | 0.025 | 0.127 | 3.65 |
| CC(C)[C@@H]1NC(=O)[C@H](Cc2ccccc2)NC(=O)[C@@H]2CCCN2C(=O)[C@H](CC(N)=O)NC(=O)[C@H](Cc2c[nH]c3ccccc23)NC(=O)[C@H](C(C)C)NC(=O)[C@H](Cc2ccc(O)cc2)NC(=O)[C@H](Cc2ccccc2)NC(=O)[C@@H](Cc2ccc(O)cc2)NC(=O)CSC[C@@H](C(=O)NCC(=O)N[C@@H](CO)C(=O)NCCC(=O)NCCC(=O)N[C@@H](CCCNC(=N)N)C(=O)N[C@@H](CCCCNC(=O)c2ccc3c(c2)C(=O)OC32c3ccc(O)cc3Oc3cc(O)ccc32)C(N)=O)NC(=O)[C@H](CCCCN)NC(=O)[C@H](Cc2ccccc2)NC1=O [CP14] ({CH2CO}-[dY]FYVWNPFVFKCGS[βAla][βAla]RK(5FAM)-NH2; thioether N-12; C-terminus assumed) | – | 0.143 | 0.140 | 0.027 | 0.141 | -5.24 |
